This data set can be described thus: Solubility stated in words. Format: physicochemical.

These results are taken from patent US5126227A, “High contrast photographic elements containing ballasted hydrophobic isothioureas” (priority 1990, dated 1992).

Structures are written as SMILES.

For `N=C(N)SCCS(=O)(=O)O` [Comparative test E], the “solubility (in words)” value is given as “highly soluble”.

Consider `N=C(N)SCCCS(=O)(=O)O` [Comparative test F], for which the “solubility (in words)” value is given as “less soluble”. On to `N=C(N)SCCCCS(=O)(=O)O` [Comparative test G], for which the “solubility (in words)” value is recorded as “less soluble”. Consider `CC(CCSC(=N)N)S(=O)(=O)O` (stereo not shown) [Comparative test H], for which the “solubility (in words)” value is “less soluble”.
